Assay results as given in US8012940B2, “Utilization of anti-neuropathic pain effect of D-allose and D-psicose” (Teikoku Seiyaku Co., Ltd., priority 2005, dated 2011).

Columns and labels:
[1] = test system: Chung model as a rat neuropathic pain model; assay: von Frey test, pain threshold in the Chung model; type: in vivo; details: for pain threshold at the von Frey test: vs distilled water-dosed group; for pain threshold, dose dependence: 1 to 6 g/kg oral
Description: Male SD rats of age 6 weeks were divided into groups, each group consisting of 10 rats. So as to examine the effect of a test substance on neuropathic pain, the Chung model was prepared. Specifically, unilateral 5-th and 6-th lumbar pulp nerves of the lumbar pulp nerves were completely knotted at a site as close as possible to lumbar vertebrae. After a 10-day recovery period, the von Frey test was done on the footpad on the surgery side, to measure the pain threshold. The von Frey test was done three times at a 1-week interval as drug holiday. At the first test, the effect of D-allose on the pain threshold was examined; and at the second test and the third test, the effects of D-psicose and a mixture of D-allose and D-psicose on the pain threshold were examined. The test substances were all dissolved in distilled water. The dose in volume was 5 mL/kg for oral administration. The pain threshold was measured immediately before the administration of test substances, and 15 minutes, 30 minutes, 60 minutes and 120 minutes after the administration. The results are expressed as mean and standard error. The significance of the mean was tested by the Dunnett's multiple test. Neuropathic pain models are frequently used as human neuralgia models for making research works on pain and screening for analgesics. […] The Chung model as the neuropathic pain model used in the research works is a model with a characteristic feature such that the model is afflicted with a strong pain on contact stimulation, and is known that the model is annoyed with a pain very similar to human neuralgia (Exp. Brain Res., 113, 200-206, 1997). In such model, the von Frey test is frequently used so as to assay the pain intensity via contact. The von Frey test is a method for observing whether or not an animal when the footpad is pressed with a fine metal wire withdraws the leg. When the animal withdraws the leg, the force just pressing the footpad is defined the threshold then.

[2] = Solubility in water; type: physicochemical
[3] = test system: leukocyte; details: in vitro, cited from earlier work

| Structure (SMILES) | pain threshold at the von Frey test ([1]; 1 g/kg oral, N=10) | pain threshold at the von Frey test ([1]; 3 g/kg oral, 15 minutes after administration) | pain threshold at the von Frey test ([1]; 6 g/kg oral, 15, 30 and 60 minutes after administration) | pain threshold, dose dependence ([1]; single administration) | solubility in water [2] | active oxygen generation ([3]; leukocyte) | pain threshold at the von Frey test ([1]; 1 g/kg oral, 15 minutes after administration) | pain threshold at the von Frey test ([1]; 3 g/kg oral, 15 and 30 minutes after administration) | increase of the threshold compared with the administration of D-allose ([1]; single administration, oral) | MCP-1 secretion ([3]; similar experiments) | active oxygen scavenging ([3]; similar experiments) |
| --- | --- | --- | --- | --- | --- | --- | --- | --- | --- | --- | --- |
| O=C[C@H](O)[C@H](O)[C@H](O)[C@H](O)CO [D-allose] | not significantly different | significant increase | significant increase | highly raised, in a manner proportional to the dose | highly soluble in water | action of suppressing active oxygen generation | – | – | – | – | – |
| O=C(CO)[C@H](O)[C@H](O)[C@H](O)CO [D-psicose] | – | – | – | highly raised, in a manner proportional to the dose | highly soluble in water | – | not significantly different | significant increase | greater | MCP-1 secretion-suppressing action | active oxygen-scavenging action |
